Where two headings read alike, the source gives them in different places.
What was measured:
[1] = system: liver and kidney functions in rats; assay: Sub-acute toxic effect on liver and kidney functions in rats; assay type: in vivo; parameters: AST: unit not given here; details: for Albumin (ALB) / Total Proteins (TP): in g/L (unit assumed); for Creatinine (CRE): in µmol/L (unit assumed)
blood routine tests = assay: Sub-acute toxic effect on blood routine tests; assay type: in vivo, Rat; parameters: WBC / RBC: unit not given beside the values; details: for PLT: in 10^9/L (unit assumed); for Lymphocyte (LYM): in % (unit assumed); for HGB: in g/L (unit assumed)
[2] = system: blood coagulation functions in rats; assay: Sub-acute toxic effect on blood coagulation functions in rats; assay type: in vivo
[3] = Effect on body weight of rats; assay type: in vivo; details: for BW: in g (unit assumed)
[4] = Solubility in water and methanol; assay type: physicochemical
[5] = Stability in water and methanol solution; assay type: physicochemical; details: sodium salt
Rat = assay: Sub-acute toxicity, rat
[6] = Acute toxicity (LD50), rat; details: in vivo
[7] = Acute toxicity (LD50), mouse; details: in vivo
[8] = rats F, iv (12 mg/kg), in U/L (unit assumed)
[9] = Day 6, rats F, ig group 20 mg/kg
[10] = Day 6, rats F, iv group 12 mg/kg
[11] = Day 6, rats M, ig group 20 mg/kg
[12] = Day 6, rats M, iv group 12 mg/kg
[13] = Day 11, rats F, ig group 20 mg/kg
[14] = Day 11, rats F, iv group 12 mg/kg
[15] = Day 11, rats M, ig group 20 mg/kg
[16] = Day 11, rats M, iv group 12 mg/kg
[17] = Day 16, rats F, ig group 20 mg/kg
[18] = Day 16, rats F, iv group 12 mg/kg
[19] = Day 16, rats M, ig group 20 mg/kg
[20] = Day 16, rats M, iv group 12 mg/kg
[21] = Day 21, rats F, ig group 20 mg/kg
[22] = Day 21, rats F, iv group 12 mg/kg
[23] = Day 21, rats M, ig group 20 mg/kg
[24] = Day 21, rats M, iv group 12 mg/kg
[25] = Day 24, rats F, ig group 20 mg/kg
[26] = Day 24, rats F, iv group 12 mg/kg
[27] = Day 24, rats M, ig group 20 mg/kg
[28] = Day 24, rats M, iv group 12 mg/kg

## CCCCC(O)c1ccc(Br)cc1C(=O)[O-].[Na+] (stereo not drawn) [BZP (amorphous form), 5-bromo-2-(α-hydroxypentyl)benzoic acid sodium salt]
[1]; rats F, ig (20 mg/kg)
  AST: 168.00 ± 17.19
  Blood urea nitrogen (BUN): 3.80 ± 0.59
  Total Bilirubin (TBIL): 2.10 ± 0.40
  Albumin (ALB): 32.43 ± 1.14
  Total Proteins (TP): 46.63 ± 1.07
  Creatinine (CRE): 57.50 ± 3.11
[1]; rats F, ig (20 mg/kg), in U/L (unit assumed)
  Creatinine kinase (CK): 776.00 ± 437.68
[1]; rats F, iv (12 mg/kg)
  AST: 202.40 ± 68.12
  Blood urea nitrogen (BUN): 4.00 ± 0.43
  Total Bilirubin (TBIL): 2.72 ± 0.67
  Albumin (ALB): 33.96 ± 1.71
  Total Proteins (TP): 49.00 ± 0.79
  Creatinine (CRE): 55.40 ± 2.30
[1]; [8]
  ALT: 38.00 ± 9.82
  Creatinine kinase (CK): 636.80 ± 536.05
[1]; rats M, ig (20 mg/kg)
  AST: 4.92 ± 0.75
  Blood urea nitrogen (BUN): 2.76 ± 1.09
  Total Bilirubin (TBIL): 2.24 ± 1.50
  Albumin (ALB): 28.98 ± 7.34
  Total Proteins (TP): 40.26 ± 15.78
  Creatinine (CRE): 38.80 ± 25.62
[1]; rats M, ig (20 mg/kg), in U/L (unit assumed)
  Creatinine kinase (CK): 938.60 ± 553.43
[1]; rats M, iv (12 mg/kg)
  AST: 5.34 ± 1.33
  Blood urea nitrogen (BUN): 3.46 ± 0.72
  Total Bilirubin (TBIL): 3.10 ± 1.23
  Albumin (ALB): 36.90 ± 6.72
  Total Proteins (TP): 53.40 ± 8.69
  Creatinine (CRE): 66.60 ± 15.09
[1]; rats M, iv (12 mg/kg), in U/L (unit assumed)
  Creatinine kinase (CK): 762.00 ± 351.72
Blood routine tests; F, ig (20 mg/kg)
  Basophil (RAS): 1.43 ± 1.17
  Eosinophil (EOS): 0.23 ± 0.12
  Monocyte (MON): 2.05 ± 1.74
  Neutrophil (NEU): 28.44 ± 10.20
  RBC: 4.51 ± 3.30
  WBC: 4.44 ± 2.24
  PLT: 1146.00 ± 74.22
  Lymphocyte (LYM): 66.45 ± 11.13
  HGB: 117.00 ± 19.70
Blood routine tests; F, iv (12 mg/kg)
  Basophil (RAS): 0.56 ± 0.15
  Eosinophil (EOS): 0.76 ± 0.50
  Monocyte (MON): 3.62 ± 0.63
  Neutrophil (NEU): 21.44 ± 2.74
  RBC: 6.95 ± 1.06
  WBC: 5.20 ± 1.53
  PLT: 1075.00 ± 41.70
  Lymphocyte (LYM): 73.62 ± 2.16
  HGB: 125.60 ± 16.68
Blood routine tests; M, ig (20 mg/kg)
  Basophil (RAS): 0.62 ± 0.25
  Eosinophil (EOS): 0.56 ± 0.50
  Monocyte (MON): 4.93 ± 1.91
  Neutrophil (NEU): 23.88 ± 5.48
  RBC: 7.61 ± 0.28
  WBC: 5.18 ± 0.71
  PLT: 1258.20 ± 281.33
  Lymphocyte (LYM): 70.84 ± 3.99
  HGB: 134.00 ± 19.13
Blood routine tests; M, iv (12 mg/kg)
  Basophil (RAS): 0.40 ± 0.12
  Eosinophil (EOS): 0.60 ± 0.29
  Monocyte (MON): 3.80 ± 0.70
  Neutrophil (NEU): 22.16 ± 4.14
  RBC: 7.86 ± 0.40
  WBC: 5.66 ± 2.23
  PLT: 1087.20 ± 56.34
  Lymphocyte (LYM): 72.50 ± 4.66
  HGB: 141.40 ± 7.20
[2]; rats F, ig (20 mg/kg)
  APTT: 22.8 ± 5.9 s
  FIB: 7.22 ± 0.97 g/L
  PT: 17.5 ± 2.2 s
  TT: 27.3 ± 2.4 s
[2]; rats F, iv (12 mg/kg)
  APTT: 22.3 ± 8.5 s
  FIB: 6.63 ± 0.95 g/L
  PT: 18.8 ± 3.3 s
  TT: 27.5 ± 2.8 s
[2]; rats M, ig (20 mg/kg)
  APTT: 26.5 ± 3.2 s
  FIB: 7.03 ± 0.29 g/L
  PT: 16.4 ± 3.4 s
  TT: 26.9 ± 5.9 s
[2]; rats M, iv (12 mg/kg)
  APTT: 23.7 ± 2.1 s
  FIB: 6.28 ± 0.55 g/L
  PT: 17.5 ± 2.0 s
  TT: 27.1 ± 3.8 s
[3]; Day 1, rats F, ig group 20 mg/kg
  BW: 179 ± 12
[3]; Day 1, rats F, iv group 12 mg/kg
  BW: 182 ± 13
[3]; Day 1, rats M, ig group 20 mg/kg
  BW: 183 ± 8
[3]; Day 1, rats M, iv group 12 mg/kg
  BW: 179 ± 13
[3]; [9]
  ΔW (%): 7 ± 4%
  BW: 192 ± 16
[3]; [10]
  ΔW (%): 7 ± 2%
  BW: 195 ± 12
[3]; [11]
  ΔW (%): 15 ± 3%
  BW: 210 ± 8
[3]; [12]
  ΔW (%): 14 ± 6%
  BW: 204 ± 7
[3]; [13]
  ΔW (%): 7 ± 2 %
  BW: 203 ± 14
[3]; [14]
  ΔW (%): 3 ± 2 %
  BW: 200 ± 15
[3]; [15]
  ΔW (%): 17 ± 5%
  BW: 245 ± 12
[3]; [16]
  ΔW (%): 14 ± 2 %
  BW: 238 ± 6
[3]; [17]
  ΔW (%): 25 ± 4 %
  BW: 224 ± 11
[3]; [18]
  ΔW (%): 21 ± 7 %
  BW: 212 ± 14
[3]; [19]
  ΔW (%): 53 ± 14%
  BW: 280 ± 18
[3]; [20]
  ΔW (%): 31 ± 10%
  BW: 270 ± 6
[3]; [21]
  ΔW (%): 29 ± 6 %
  BW: 230 ± 15
[3]; [22]
  ΔW (%): 23 ± 6 %
  BW: 223 ± 20
[3]; [23]
  ΔW (%): 75 ± 14%
  BW: 320 ± 18
[3]; [24]
  ΔW (%): 66 ± 15 %
  BW: 296 ± 8
[3]; [25]
  ΔW (%): 31 ± 5 %
  BW: 235 ± 12
[3]; [26]
  ΔW (%): 21 ± 6 %
  BW: 221 ± 19
[3]; [27]
  ΔW (%): 84 ± 14%
  BW: 337 ± 18
[3]; [28]
  ΔW (%): 71 ± 16 %
  BW: 304 ± 10
[4]; methanol, organic solvent or mixture, methanol, read-out: Solubility in methanol
  solubility: 1890 mg/mL
[4]; water, read-out: Solubility in water
  solubility: 2980 mg/mL
[5]; in methanol solution
  Stability: >24 h
[5]; in water
  Stability: >24 h
Rat; ig
  Sub-acute: >20 mg/kg
Rat; iv
  Sub-acute: >12 mg/kg
[6]; iv
  LD50: 246 mg/kg
[6]; po
  LD50: 726 mg/kg
[7]; iv
  LD50: 323 mg/kg
[7]; po
  LD50: 927 mg/kg

Reference: patent US11148991B2, “5-bromo-2-(alpha-hydroxypentyl)benzoic acid sodium salts in different crystal forms, and preparation method thereof” (priority 2013, dated 2021)
